One substance from US10138292B2, “Cell culture medium” (BIOLAMINA AB, priority 2010, dated 2018) can be followed below.

Assay [1] deals with human ES cells. Nature of the assay: Cell adhesion assay, 1 hour (Example 1). The format is cell-based. As to conditions: O3 medium without any additives, without Y-27632. The protocol:
Ninety-six-well tissue cell culture plates were coated overnight at 4° C. with sterile solutions of the ECM proteins mouse LN-111 (Invitrogen), human recombinant LN-511, and human recombinant LN-521, all at a concentration of 30 μg/ml (5 μg/cm^2). For control cells, BD Matrigel™ hESC qualified (BD Biosciences) was used according to the manufacturer's instructions.
The assay was performed as described (Extracellular Matrix Protocols, 2000). Briefly, 96-well plates were coated by extracellular matrix proteins as described above and blocked by O3 medium containing bovine serum albumin. The ES cells were plated at a cell density of 600 cell/mm^2 upon extracellular matrix-coated plates and were left to adhere for either 1 hour or 1 day at the cell incubator. Non-adherent cells were washed away, and adherent cells were fixed for 20 min by 5% glutaraldehyde, stained by 0.1% Crystal Violet.

In assay [2] the test system is OCT4. Nature of the assay: FACS analysis for OCT4. The format is cell-based, human. As to conditions: after several single cell suspension passages, O3 medium. The protocol:
OCT4 expression was analyzed as described in Ludwig, T. E. et al. Derivation of human embryonic stem cells in defined conditions. Nat. Biotechnol. 24, 185-187 (2006). Cells were run on FACSCalibur Flow Cytometer (Becton Dickinson). Data were analyzed with CellQuest software (Becton Dickinson).

The test system of assay [3] is hES cells. Briefly: Cell survival assay, 24 hours (Example 2). In kind it is cell-based, human. The method, then:
The survival assay was performed as described for the cell adhesion assay above, except that the cells were left in the cell incubator for 24 hours. For inhibition of survival assay, the cells were kept in a medium with function blocking antibodies at the concentrations recommended by the manufacturer or pathway inhibitors at concentrations indicated in the text for 30 minutes, and then plated on the coated dishes. All the experiments were performed in quadruplicate.
Pluripotent hES cells express α1, α5, β1, β2 and γ1 laminin chains. To compare the adhesion and clonal survival of hES cells plated from single cell suspension to different coating substrata, hES cells growing as monolayers on LN-511 or as clusters on a feeder layer were trypsinized into single cell suspension in O3 medium and plated on cell culture dishes coated with Matrigel, LN-111, LN-511, LN-521 or a mixture of LN-511 and LN-521, in the absence or presence of a ROCK inhibitor (Y-27632) and analyzed after 24 hours.

The subject of assay [4] is human embryonic stem cells. Nature of the assay: Survival of dissociated human embryonic stem cells one day after plating on precoated dishes. In kind it is cell-based. As to conditions: single cell suspension, O3 medium, 30 Kcells/cm^2. From the text:
In other aspects, the present disclosure provides a new material, isolated laminin-521, which permits human embryonic stem cell survival after dissociation into single cell suspension. The stem cells were dissociated into single cell suspension by Trypsin-EDTA treatment, pelleted by centrifugation, resuspended into O3 medium, filtered through a 40 μm sieve, and plated at a density of 30 Kcells/cm^2 on cell culture dishes precoated by either isolated laminin-521, laminin-511, or Matrigel. After one day in culture, the cells plated on Matrigel died, as is known in the art.

In the case of “LN-521: protein formed by joining α5, β2 and γ1 laminin chains; human recombinant, produced in HEK293 cells”, the “adhesion of human ES cells at 1 hour” value in assay [1] is “roughly the same”. In assay [2], the “percentage of Oct4 positive (pluripotent) cells compared with Matrigel” value is reported as “much higher percentage”. The “survival of Y-27632 treated cells compared with Matrigel” value in assay [3] (10 μM of Y-27632, 40,000 cells per 1 cm^2) was “survived better”. Besides, the “survival compared with LN-511” value in assay [3] (24 hours, absence of ROCK inhibitor) was “significantly higher”. The “survival after 24 hours relative to Matrigel” value in assay [3] (dissociated hES cells) was “approximately 20 times”. The “survival relative to Matrigel” value in assay [3] (exogenous bFGF removed from the O3 medium) is recorded as 20 times. Also, the “survival 24 hours after plating” value in assay [3] (medium lacking bFGF, LiCl, GABA, pipecolic acid and TGFβ) is reported as “survived”; in assay [3] (single cell suspension, O3 medium, absence of ROCK inhibitor), “did so as single cells”. For the same substance, in assay [4], the “survival after one day in culture” value is given as “survived”.
